Where two headings read alike, the source gives them in different places.
Assays:
[1] = molecular target: GDP-bound NRAS wild-type protein (Homo sapiens, UniProt P01111); assay: Binding to NRAS by surface plasmon resonance (SPR), KD and KD ratio to KRAS
Method in brief: (§1)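 SPR, 30°C: Avi-biotin RAS·GDP captured via Biotin CAPture (~100–300 RU); running buffer HBS pH 7.4, 1 mM DTT, 10 mM MgCl2, 0.01% Tween 20, 10 µM GDP, 4% DMSO. Single-cycle kinetics, 100 µL/min, 75 s injections; 1:1 model → KD.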

[2] = test system: human lung cancer strain NCI-H441; assay: NCI-H441 cell proliferation inhibitory activity (CellTiter-Glo, 4 days); type: cell-based; details: read-out: NCl-H441 IC50
Method in brief: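 Proliferation was scored by […] measured after the reagent was added to cultures kept at 37°C in 5% carbon dioxide.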

[3] = molecular target: GDP-bound KRAS wild-type protein (Homo sapiens, UniProt P01116); assay: Binding to KRAS by surface plasmon resonance (SPR), dissociation constant KD
GDP-bound KRAS wild-type protein, sequence (P01116 1-188 isoform P01116-2): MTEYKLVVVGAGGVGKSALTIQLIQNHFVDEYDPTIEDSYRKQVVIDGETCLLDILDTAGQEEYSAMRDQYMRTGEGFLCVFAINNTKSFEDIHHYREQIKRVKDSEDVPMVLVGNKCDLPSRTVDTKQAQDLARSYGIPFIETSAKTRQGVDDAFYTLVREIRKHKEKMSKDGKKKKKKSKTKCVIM
Method in brief: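 Single-cycle kinetics on GDP-loaded biotin-Avi RAS captured to ~100–300 RU; 75 s ascending injections, 100 µL/min, 30°C. HBS pH 7.4 + 10 mM MgCl2/10 µM GDP/4% DMSO. 1:1 fit, KD.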

HRAS wild-type protein = HRAS wild-type protein (Homo sapiens, UniProt P01112); assay: Binding to HRAS by surface plasmon resonance (SPR), KD and KD ratio to KRAS
HRAS wild-type protein, sequence (P01112 whole entry): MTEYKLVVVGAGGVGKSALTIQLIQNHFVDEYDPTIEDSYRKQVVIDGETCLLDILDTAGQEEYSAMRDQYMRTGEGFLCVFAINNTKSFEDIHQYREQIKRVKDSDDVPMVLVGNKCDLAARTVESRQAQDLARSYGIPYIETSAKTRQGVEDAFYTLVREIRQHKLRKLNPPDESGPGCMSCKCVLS
Method in brief: as §1

[4] = ratio of KD with respect to GDP-bound NRAS wild-type protein to KD with respect to KRAS
[5] = 50% proliferation inhibitory concentration, four days
[6] = Single Cycle Kinetics, 1:1 binding model
[7] = ratio of KD with respect to HRAS wild-type protein to KD with respect to KRAS
[8] = ratio of KD for GDP-bound NRAS wild-type protein to KD for KRAS
[9] = ratio of KD for HRAS wild-type protein to KD for KRAS

GDP-bound NRAS wild-type protein, sequence (P01111 whole entry): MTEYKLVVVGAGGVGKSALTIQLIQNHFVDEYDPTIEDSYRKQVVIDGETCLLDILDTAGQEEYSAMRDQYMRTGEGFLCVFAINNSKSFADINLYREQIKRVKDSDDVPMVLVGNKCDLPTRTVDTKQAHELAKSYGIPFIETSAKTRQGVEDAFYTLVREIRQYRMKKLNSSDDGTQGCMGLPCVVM

| Compound | IC50 [2, 5] | Kd [3, 6] | IC50 ([2]; NCI-H441 cells, 4 days) | Kd ([3]; Single Cycle Kinetics) | Kd ([3]; 1:1 binding model) | NRAS /KRAS [1, 4] | HRAS /KRAS (HRAS wild-type protein; [7]) | NRAS /KRAS [1, 8] | HRAS /KRAS (HRAS wild-type protein; [9]) |
| --- | --- | --- | --- | --- | --- | --- | --- | --- | --- |
| CCO[C@@H]1C[C@H]2C(=O)NC3(CCC3)C(=O)N(C)[C@@H](C3CCCC3)C(=O)N(C)[C@H](C(=O)N(C)C)CC(=O)N(C)[C@@H](CC(C)C)C(=O)N[C@@H]([C@@H](C)CC)C(=O)N(C)CC(=O)N(C)[C@H]3C/C=C\CCN(C3=O)[C@@H](Cc3ccc(F)cc3)C(=O)N(C)CC(=O)N[C@@H](CCc3ccc(Cl)c(Cl)c3)C(=O)N2C1 [PP1482] | 76.4 nM | 0.45 nM | – | – | – | A (a compound having 10 or more and less than 20 is denoted as A) | B (a compound having 3 or more and less than 10 is denoted as B) | – | – |
| CCO[C@@H]1C[C@H]2C(=O)NC3(CCC3)C(=O)N(C)[C@@H](C3CCCC3)C(=O)N(C)[C@H](C)CC(=O)N(C)[C@@H](CC(C)C)C(=O)N[C@@H]([C@@H](C)CC)C(=O)N(C)CC(=O)N(C)[C@H]3C/C=C\CCN(C3=O)[C@@H](Cc3ccc(C)cc3)C(=O)N(C)CC(=O)N[C@@H](CCc3cc(F)c(C(F)(F)F)c(F)c3)C(=O)N2C1 [PP1417] | 18.4 nM | 0.26 nM | – | – | – | B (a compound having 3 or more and less than 10 is denoted as B) | B (a compound having 3 or more and less than 10 is denoted as B) | – | – |
| CCCCCC[C@H]1C(=O)N[C@@H]([C@@H](C)CC)C(=O)N(C)CC(=O)N(C)[C@H]2C/C=C\CCN(C2=O)[C@@H](Cc2ccc(C(F)(F)F)cc2)C(=O)N(C)CC(=O)N[C@@H](CCc2ccc3sccc3c2)C(=O)N2C[C@H](OCC)C[C@H]2C(=O)NC2(CCC2)C(=O)N(C)[C@@H](C2CCCC2)C(=O)N(C)[C@H](C(=O)N(C)C)CC(=O)N1C [PP1259] | 62 nM | 0.49 nM | – | – | – | A (a compound having 10 or more and less than 20 is denoted as A) | A (a compound having 10 or more and less than 20 is denoted as A) | – | – |
| CCO[C@@H]1C[C@H]2C(=O)NC3(CCC3)C(=O)N(C)[C@@H](C(CC)CC)C(=O)N(C)[C@H](C(=O)N(C)C)CC(=O)N(C)[C@@H](CC)C(=O)N[C@@H]([C@@H](C)CC)C(=O)N(C)CC(=O)N(C)[C@H]3C/C=C\CCN(C3=O)[C@@H](Cc3ccc(C(F)(F)F)cc3)C(=O)N(C)CC(=O)N[C@@H](CCc3ccc4sccc4c3)C(=O)N2C1 [PP1223] | 117 nM | 1.2 nM | – | – | – | AA (a compound having 20 or more is denoted as AA) | A (a compound having 10 or more and less than 20 is denoted as A) | – | – |
| CCCO[C@@H]1C[C@H]2C(=O)NC3(CCC3)C(=O)N(C)[C@@H](C3CCCC3)C(=O)N(C)[C@H](C(=O)N3CCOCC3)CC(=O)N(C)[C@@H](CC(C)C)C(=O)N[C@@H]([C@@H](C)CC)C(=O)N(C)CC(=O)N(C)[C@H]3CCCCN(C3=O)[C@@H](Cc3ccc(C(F)(F)F)cc3)C(=O)N(C)CC(=O)N[C@@H](CCc3cc(F)c(C(F)(F)F)c(F)c3)C(=O)N2C1 [PP1159] | 13 nM | 0.036 nM | – | – | – | C (A compound having a KD ratio of 0.1 or more and less than 3 is denoted as C) | B (a compound having 3 or more and less than 10 is denoted as B) | – | – |
| CCO[C@@H]1C[C@H]2C(=O)NC3(CCC3)C(=O)N(C)[C@@H](C3CCCC3)C(=O)N(C)[C@H](C(=O)N(C)C)CC(=O)N(C)[C@@H](Cc3cccc(C#N)c3)C(=O)N[C@@H]([C@@H](C)CC)C(=O)N(C)CC(=O)N(C)[C@H]3CCCCCN(C3=O)[C@@H](Cc3ccc(F)cc3)C(=O)N(C)CC(=O)N[C@@H](CCc3cc(F)c(C(F)(F)F)c(F)c3)C(=O)N2C1 [PP1156] | 33.7 nM | 0.063 nM | – | – | – | B (a compound having 3 or more and less than 10 is denoted as B) | B (a compound having 3 or more and less than 10 is denoted as B) | – | – |
| C#CC[C@H]1C(=O)N[C@@H]([C@@H](C)CC)C(=O)N(C)CC(=O)N(C)[C@H]2CC[C@@H](C)CN(C2=O)[C@@H](Cc2ccc(C(F)(F)F)cc2)C(=O)N(C)CC(=O)N[C@@H](CCc2ccc(C(F)(F)F)c(Cl)c2)C(=O)N2CCC[C@H]2C(=O)NC2(CCCC2)C(=O)N(C)[C@@H](C2CCCC2)C(=O)N(C)[C@H](C(=O)N(C)C)CC(=O)N1C [PP1340] | 10.9 nM | 0.081 nM | – | – | – | B (a compound having 3 or more and less than 10 is denoted as B) | B (a compound having 3 or more and less than 10 is denoted as B) | – | – |

More lines, main results first:

| IC50 [2, 5] | Kd [3, 6] | IC50 ([2]; NCI-H441 cells, 4 days) | Kd ([3]; Single Cycle Kinetics) | Kd ([3]; 1:1 binding model) | Compound | NRAS /KRAS [1, 4] | HRAS /KRAS (HRAS wild-type protein; [7]) | NRAS /KRAS [1, 8] | HRAS /KRAS (HRAS wild-type protein; [9]) |
| --- | --- | --- | --- | --- | --- | --- | --- | --- | --- |
| – | – | 24.2 nM | 0.56 nM | – | CCCO[C@@H]1C[C@H]2C(=O)NC3(CC(C)(C)C3)C(=O)N(C)[C@@H](C3CCCC3)C(=O)N(C)[C@H](C(=O)N(C)CC)CC(=O)N(C)[C@@H](COCC)C(=O)N[C@@H]([C@@H](C)CC)C(=O)N3C[C@@H](F)C[C@H]3C(=O)N(C)[C@H]3C/C=C\CCN(C3=O)[C@@H](Cc3ccc(C)cc3)C(=O)N(C)CC(=O)N[C@@H](CCc3ccc(C(F)(F)F)c(OC)c3)C(=O)N2C1 [PP3469] | – | – | A (a compound having 10 or more and less than 20 is denoted as A) | A (a compound having 10 or more and less than 20 is denoted as A) |
| – | – | 6.8 nM | 0.14 nM | – | CCC[C@H]1C(=O)N[C@@H]([C@@H](C)CC)C(=O)N(C)CC(=O)N(C)[C@H]2C/C=C\CCN(C2=O)[C@@H](Cc2ccc(C(F)(F)F)cc2)C(=O)N(C)CC(=O)N[C@@H](CCc2ccc(C(F)(F)F)c(OC)c2)C(=O)N2C[C@H](OCC)C[C@H]2C(=O)OC2(CCC2)C(=O)N(C)[C@@H](C2CCCC2)C(=O)N(C)[C@H](C(=O)N(C)C)CC(=O)N1C [PP3370] | – | – | A (a compound having 10 or more and less than 20 is denoted as A) | B (a compound having 3 or more and less than 10 is denoted as B) |
| – | – | 71.9 nM | – | 0.86 nM | CCOC[C@H]1C(=O)N[C@@H]([C@@H](C)CC)C(=O)N(C)CC(=O)N(C)[C@H]2C/C=C\CCN(C2=O)[C@@H](Cc2ccc(C(F)(F)F)cc2)C(=O)N(C)CC(=O)N[C@@H](CCc2cc(F)c(C(F)(F)F)c(F)c2)C(=O)N2C[C@H](OCC)C[C@H]2C(=O)NC2(CC(C)(C)C2)C(=O)N(C)[C@@H](CC2CCC2)C(=O)N(C)[C@H](C(=O)N(C)C)CC(=O)N1C [PP2763] | – | – | A (a compound having 10 or more and less than 20 is denoted as A) | A (a compound having 10 or more and less than 20 is denoted as A) |
| – | – | 17.6 nM | – | 0.57 nM | CCC[C@H]1C(=O)N[C@@H]([C@@H](C)CC)C(=O)N(C2CC2)CC(=O)N(C)[C@H]2C/C=C\CCN(C2=O)[C@@H](CC2CCC(F)(F)CC2)C(=O)N(C)CC(=O)N[C@@H](CCc2cc(F)c(C(F)(F)F)c(F)c2)C(=O)N2C[C@H](OCC)C[C@H]2C(=O)NC2(CC(C)(C)C2)C(=O)N(C)[C@@H](C2CCCC2)C(=O)N(C)[C@H](C(=O)N(C)C)CC(=O)N1C [PP2566] | – | – | A (a compound having 10 or more and less than 20 is denoted as A) | B (a compound having 3 or more and less than 10 is denoted as B) |
| – | – | 55.8 nM | – | 0.85 nM | CCC[C@H]1C(=O)N[C@@H]([C@@H](C)CC)C(=O)N(C)CC(=O)N(C)[C@H]2C/C=C\CCN(C2=O)[C@@H](Cc2ccc(C(F)(F)F)cc2)C(=O)N(C)CC(=O)N[C@@H](CCc2ccc(C(F)(F)F)c(OC)c2)C(=O)N2C[C@H](OCC)C[C@H]2C(=O)NC2(CC(C)(C)C2)C(=O)N(C)[C@@H](CC2CCC2)C(=O)N(C)[C@H](C(=O)N(C)C)CC(=O)N1C [PP2764] | – | – | A (a compound having 10 or more and less than 20 is denoted as A) | A (a compound having 10 or more and less than 20 is denoted as A) |
| – | – | 2.2 nM | – | 0.76 nM | CCCOC[C@H]1C(=O)N[C@@H]([C@@H](C)CC)C(=O)N(C2CC2)CC(=O)N(C)[C@H]2C/C=C\CCN(C2=O)[C@@H](CC2CCC(F)(F)CC2)C(=O)N(C)CC(=O)N[C@@H](CCc2ccc(C(F)(F)F)c(OC)c2)C(=O)N2C[C@@H](C)C[C@H]2C(=O)N(C)C2(CCC2)C(=O)N(C)[C@@H](C2CCCC2)C(=O)N(C)[C@H](C(=O)N(C)C)CC(=O)N1C [PP2379] | – | – | A (a compound having 10 or more and less than 20 is denoted as A) | A (a compound having 10 or more and less than 20 is denoted as A) |
| – | – | 190 nM | – | 3 nM | CC[C@H](C)[C@@H]1NC(=O)[C@H](COC)N(C)C(=O)C[C@@H](C(=O)N(C)C)N(C)C(=O)[C@H](C2CCCC2)N(C)C(=O)C2(CC(C)(C)C2)NC(=O)[C@@H]2C[C@@H](OC3CCCC3)CN2C(=O)[C@H](CCc2cc(F)c(C(F)(F)F)c(F)c2)NC(=O)CN(C)C(=O)[C@H](CC2CCCCC2)N2CC/C=C\C[C@@H](C2=O)N(C)C(=O)CN(C2CC2)C1=O [PP2630] | – | – | A (a compound having 10 or more and less than 20 is denoted as A) | B (a compound having 3 or more and less than 10 is denoted as B) |
| – | – | 17.6 nM | 0.26 nM | – | CCC[C@H]1C(=O)N[C@@H]([C@@H](C)CC)C(=O)N2CCC[C@H]2C(=O)N(C)[C@H]2C/C=C\CCN(C2=O)[C@@H](Cc2ccc(C(F)(F)F)cc2)C(=O)N(C)CC(=O)N[C@@H](CCc2ccc(C(F)(F)F)c(Cl)c2)C(=O)N2CC[C@H](OC)[C@H]2C(=O)N(C)C2(CCC2)C(=O)N(C)[C@@H](C2CCCC2)C(=O)N(C)[C@H](C(=O)N(C)C)CC(=O)N1C [PP3289] | – | – | A (a compound having 10 or more and less than 20 is denoted as A) | A (a compound having 10 or more and less than 20 is denoted as A) |

Reference: patent EP4603105A1, “PHARMACEUTICAL COMPOSITION CONTAINING CYCLIC COMPOUND HAVING SELECTIVE KRAS INHIBITORY EFFECT AGAINST HRAS AND NRAS” (CHUGAI SEIYAKU KABUSHIKI KAISHA, priority 2022, dated 2024)
